Here are results for 20 molecules from patent US11535630B2, “Apelin receptor (APJ) agonists and uses thereof” (Research Triangle Institute, priority 2015, dated 2022).

Molecules are shown by their SMILES.

For the first experiment, the target named is T1, apelin receptor (APJ) (Homo sapiens, UniProt P35414).
T1 sequence (P35414 1-380): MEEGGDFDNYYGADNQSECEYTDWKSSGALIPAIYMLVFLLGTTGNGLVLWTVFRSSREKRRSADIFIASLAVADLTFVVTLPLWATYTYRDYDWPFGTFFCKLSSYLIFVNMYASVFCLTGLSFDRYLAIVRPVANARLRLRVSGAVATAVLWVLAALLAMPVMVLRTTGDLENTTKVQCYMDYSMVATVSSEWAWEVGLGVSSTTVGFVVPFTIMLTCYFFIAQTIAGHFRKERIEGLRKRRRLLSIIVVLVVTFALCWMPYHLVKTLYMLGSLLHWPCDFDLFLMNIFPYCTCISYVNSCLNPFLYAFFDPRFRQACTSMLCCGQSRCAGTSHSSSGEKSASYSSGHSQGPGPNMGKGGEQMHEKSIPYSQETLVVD
Kind of experiment: In vitro apelin agonist activity (methods of Giddings et al., Apelin-13 as positive control). In kind it is cell-based. The following applies: EC50 (nM) Ave, in vitro apelin agonist activity, methods of Giddings et al., Apelin-13 as positive control. The text has this:
Characterization of the Apelin Agonist Activity of the Compounds
1:39-47, the contents of which are hereby incorporated by reference in its entirety. Using the methods described in Giddings et al. and Apelin-13 as a positive control.
The molecule `O=C(C[C@H](CCN1CCOCC1)NC(=O)c1cc(-c2ccccc2C(F)(F)F)n(C2CCCC2)n1)NC1CCC1` [compound 491, (3S)-N-cyclobutyl-3-({1-cyclopentyl-5-[2-(trifluoromethyl)phenyl]-1H-pyrazol-3-yl}formamido)-5-(morpholin-4-yl)pentanamide] had an EC50 of 68 nM. Molecule `O=C(C[C@H](CCN1CCCC[C@H]1C(F)(F)F)NC(=O)c1cc(-c2ccccc2C(F)(F)F)n(C2CCCC2)n1)NC1CCC1` [compound 496, (3S)-N-cyclobutyl-3-({1-cyclopentyl-5-[2-(trifluoromethyl)phenyl]-1H-pyrazol-3-yl}formamido)-5-[(2S)-2-(trifluoromethyl)piperidin-1-yl]pentanamide] yielded an EC50 of 30 nM.

The experiment is the same for the next values; noted with them: in vitro apelin agonist activity, methods of Giddings et al., Apelin-13 as positive control; read-out: EC50 (nM) Ave.
With `O=C(C[C@H](CCN1CCCC(F)(F)C1)NC(=O)c1cc(-c2ncccc2C(F)(F)F)n(C2CCCC2)n1)NC1CCC1` [compound 479, (3S)-N-cyclobutyl-3-({1-cyclopentyl-5-[3-(trifluoromethyl)pyridin-2-yl]-1H-pyrazol-3-yl}formamido)-5-(3,3-difluoropiperidin-1-yl)pentanamide], the EC50 came to 0.86 nM. `O=C(C[C@H](CCN1CCC(F)(F)C1)NC(=O)c1cc(-c2ccccc2C(F)(F)F)n(C2CCCC2)n1)NC1CCC1` [compound 480, (3S)-N-cyclobutyl-3-({1-cyclopentyl-5-[2-(trifluoromethyl)phenyl]-1H-pyrazol-3-yl}formamido)-5-(3,3-difluoropyrrolidin-1-yl)pentanamide]: the EC50 was determined as 2.76 nM. For the molecule `N#CC1CCN(CC[C@@H](CC(=O)NC2CCC2)NC(=O)c2cc(-c3ccccc3C(F)(F)F)n(C3CCCC3)n2)C1` (stereo partly drawn) [compound 481, (3S)-5-(3-cyanopyrrolidin-1-yl)-N-cyclobutyl-3-({1-cyclopentyl-5-[2(trifluoromethyl)phenyl]-1H-pyrazol-3-yl}formamido)pentanamide], the EC50 came out at 1.96 nM. Still for that read-out and setting: next, `CN1CC(NC(=O)C[C@H](CCc2ccc(F)cc2)NC(=O)c2cc(-c3ccccc3C(F)(F)F)n(C3CCCC3)n2)C1` [compound 482, (3S)-3-({1-cyclopentyl-5-[2-(trifluoromethyl)phenyl]-1H-pyrazol-3-yl}formamido)-5-(4-fluorophenyl)-N-(1-methylazetidin-3-yl)pentanamide]: 474 nM. Regarding `CN(CC[C@@H](CC(=O)NC1CCC1)NC(=O)c1cc(-c2ccccc2C(F)(F)F)n(C2CCCC2)n1)C1CCCCC1` [compound 483], the EC50 is 14 nM. In the case of `O=C(O)C[C@H](CCC1CCCCC1)NC(=O)c1cc(-c2ccccc2C(F)(F)F)n(C2CCCC2)n1` [compound 484, (3S)-5-cyclohexyl-3-({1-cyclopentyl-5-[2-(trifluoromethyl)phenyl]-1H-pyrazol-3-yl}formamido)pentanoic acid], the EC50 amounted to 1520 nM. As to `O=C(O)C[C@H](CCN1CCC(F)(F)C1)NC(=O)c1cc(-c2ccccc2C(F)(F)F)n(C2CCCC2)n1` [compound 485, (3S)-3-({1-cyclopentyl-5-[2-(trifluoromethyl)phenyl]-1H-pyrazol-3-yl}formamido)-5-(3,3-difluoropyrrolidin-1-yl)pentanoic acid], the EC50 is 110 nM. Same read-out and setting: in the case of `O=C(O)C[C@H](CCN1CCOCC1)NC(=O)c1cc(-c2ccccc2C(F)(F)F)n(C2CCCC2)n1` [compound 486, (3S)-3-({1-cyclopentyl-5-[2-(trifluoromethyl)phenyl]-1H-pyrazol-3-yl}formamido)-5-(morpholin-4-yl)pentanoic acid] it was 931 nM. In the case of `O=C(O)C[C@H](CCN1CCCC[C@H]1C(F)(F)F)NC(=O)c1cc(-c2ccccc2C(F)(F)F)n(C2CCCC2)n1` [compound 487, (3S)-3-({1-cyclopentyl-5-[2-(trifluoromethyl)phenyl]-1H-pyrazol-3-yl}formamido)-5-[(2S)-2-(trifluoromethyl)piperidin-1-yl]pentanoic acid], the EC50 was determined as 277 nM. For the molecule `O=C(O)C[C@H](CCN1CCCC[C@@H]1C(F)(F)F)NC(=O)c1cc(-c2ccccc2C(F)(F)F)n(C2CCCC2)n1` [compound 488, (3S)-3-({1-cyclopentyl-5-[2-(trifluoromethyl)phenyl]-1H-pyrazol-3-yl}formamido)-5-[(2R)-2-(trifluoromethyl)piperidin-1-yl]pentanoic acid], the EC50 was found to be 1340 nM. As for `CN(C(=O)C[C@H](CCN1CCCC[C@@H]1C(F)(F)F)NC(=O)c1cc(-c2ccccc2C(F)(F)F)n(C2CCCC2)n1)c1nccs1` [compound 489, (3S)-3-({1-cyclopentyl-5-[2-(trifluoromethyl)phenyl]-1H-pyrazol-3-yl}formamido)-N-methyl-N-(1,3-thiazol-2-yl)-5-[(2R)-2-(trifluoromethyl)piperidin-1-yl]pentanamide], the EC50 was found to be 161 nM. Turning to `CN(CC[C@@H](CC(=O)NC1CCC1)NC(=O)c1cc(-c2ccccc2C(F)(F)F)n(C2CCCC2)n1)C1CCCC1` [compound 490, (3S)-N-cyclobutyl-5-[cyc1opentyl(methyl)amino]-3-({1-cyclopentyl-5-[2(trifluoromethyl)phenyl]-1H-pyrazol-3-yl}formamido)pentanamide], the EC50 is 10.3 nM. Regarding `CCCN(CCC)CC[C@@H](CC(=O)NC1CCC1)NC(=O)c1cc(-c2ccccc2C(F)(F)F)n(C2CCCC2)n1` [compound 492, (3S)-N-cyclobutyl-3-({1-cyclopentyl-5-[2-(trifluoromethyl)phenyl]-1H-pyrazol-3-yl}formamido)-5-(dipropylamino)pentanamide], the EC50 is 36 nM.

Regarding `CC(C)CN(C)CC[C@@H](CC(=O)NC1CCC1)NC(=O)c1cc(-c2ccccc2C(F)(F)F)n(C2CCCC2)n1` [compound 493, (3S)-N-cyclobutyl-3-({1-cyclopentyl-5-[2-(trifluoromethyl)phenyl]-1H-pyrazol-3-yl}formamido)-5-[methyl(2-methylpropyl)amino]pentanamide], the EC50 stood at 24 nM.

Take `O=C(O)C[C@H](CCN1CCCCC1)NC(=O)c1cc(-c2ccccc2C(F)(F)F)n(C2CCCC2)n1` [compound 494, (3S)-3-({1-cyclopentyl-5-[2-(trifluoromethyl)phenyl]-1H-pyrazol-3-yl}formamido)-5-(piperidin-1-yl)pentanoic acid]: the EC50 turned out to be 215 nM. `CN(C(=O)C[C@H](CCN1CCOCC1)NC(=O)c1cc(-c2ccccc2C(F)(F)F)n(C2CCCC2)n1)c1nccs1` [compound 495, (3S)-3-({1-cyclopentyl-5-[2-(trifluoromethyl)phenyl]-1H-pyrazol-3-yl}formamido)-N-methyl-5-(morpholin-4-yl)-N-(1,3-thiazol-2-yl)pentanamide]: the EC50 was 165 nM. Consider `O=C(C[C@H](CCN1C2CCCC1CC2)NC(=O)c1cc(-c2ccccc2C(F)(F)F)n(C2CCCC2)n1)NC1CCC1` [compound 498, (3S)-5-{8-azabicyclo[3.2.1]octan-8-yl}-N-cyclobutyl-3-({1-cyclopentyl-5-[2-(trifluoromethyl)phenyl]-1H-pyrazol-3-yl}formamido)pentanamide], for which the EC50 was 105 nM. For the molecule `O=C(O)C[C@H](CCN1CCCC1)NC(=O)c1cc(-c2ccccc2C(F)(F)F)n(C2CCCC2)n1` [compound 499, (3S)-3-({1-cyclopentyl-5-[2-(trifluoromethyl)phenyl]-1H-pyrazol-3-yl}formamido)-5-(pyrrolidin-1-yl)pentanoic acid], the EC50 stood at 548 nM.

One may read the EC50 as the midpoint of the concentration-response curve.
